Values belong to the molecule of their own block, whether it stands above or below them.
How the values were obtained:
Histamine receptor H2 = Histamine receptor H2 (Homo sapiens, UniProt P25021); experiment: Radio-ligand binding assay screen; conditions: cloned receptor; considered inactive
Muscarinic receptor M4 = Muscarinic receptor M4 (Homo sapiens, UniProt P08173); experiment: Radio-ligand binding assay screen; conditions: cloned receptor; considered inactive
rSigma1 = rSigma1 (Rattus norvegicus, UniProt Q9R0C9); experiment: Radio-ligand binding assay screen; conditions: cloned receptor; considered inactive
α2A adrenoreceptor = α2A adrenoreceptor (Homo sapiens, UniProt P08913); experiment: Radio-ligand binding assay screen; conditions: cloned receptor; considered inactive
rSigma2 = rSigma2 (Rattus norvegicus, UniProt Q5U3Y7); experiment: Radio-ligand binding assay screen; conditions: cloned receptor; considered inactive
rSigma2, sequence (Q5U3Y7 whole entry): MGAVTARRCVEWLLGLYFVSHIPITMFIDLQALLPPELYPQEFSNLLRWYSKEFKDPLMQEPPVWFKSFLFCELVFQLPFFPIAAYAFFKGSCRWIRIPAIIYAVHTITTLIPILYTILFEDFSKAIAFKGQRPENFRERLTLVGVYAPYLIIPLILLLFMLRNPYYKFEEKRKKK

Histamine receptor H1 = Histamine receptor H1 (Homo sapiens, UniProt P35367); experiment: Radio-ligand binding assay screen; conditions: cloned receptor; considered inactive
5-HT2C = 5-HT2C (Homo sapiens, UniProt P28335); experiment: Radio-ligand binding assay screen; conditions: cloned receptor; considered inactive
5-HT2C, sequence (P28335 33-458): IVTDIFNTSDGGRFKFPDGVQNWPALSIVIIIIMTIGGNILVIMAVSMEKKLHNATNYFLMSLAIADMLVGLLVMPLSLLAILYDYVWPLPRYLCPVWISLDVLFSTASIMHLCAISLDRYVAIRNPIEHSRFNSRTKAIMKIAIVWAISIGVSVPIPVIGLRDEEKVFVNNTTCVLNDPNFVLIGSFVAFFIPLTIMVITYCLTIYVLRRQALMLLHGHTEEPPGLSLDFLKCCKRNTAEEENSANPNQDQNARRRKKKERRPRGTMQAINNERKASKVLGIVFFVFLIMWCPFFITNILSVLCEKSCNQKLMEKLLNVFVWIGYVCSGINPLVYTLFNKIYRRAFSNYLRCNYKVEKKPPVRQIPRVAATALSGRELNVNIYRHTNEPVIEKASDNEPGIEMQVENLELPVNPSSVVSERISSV

5-HT7 = 5-HT7 (Homo sapiens, UniProt P34969); experiment: Radio-ligand binding assay screen; conditions: cloned receptor; considered inactive
α1A adrenoreceptor = α1A adrenoreceptor (Homo sapiens, UniProt P35348); experiment: Radio-ligand binding assay screen; conditions: cloned receptor; considered inactive
SERT = SERT (Homo sapiens, UniProt P31645); experiment: Radio-ligand binding assay screen; conditions: cloned transporter; considered inactive
Muscarinic receptor M2 = Muscarinic receptor M2 (Homo sapiens, UniProt P08172); experiment: Radio-ligand binding assay screen; conditions: cloned receptor; considered inactive
α1Δ adrenoreceptor = α1Δ adrenoreceptor (Homo sapiens, UniProt P25100); experiment: Radio-ligand binding assay screen; conditions: cloned receptor; considered inactive
Muscarinic receptor MS = Muscarinic receptor MS (Homo sapiens, UniProt P08912); experiment: Radio-ligand binding assay screen; conditions: cloned receptor; considered inactive
5-HT1A = 5-HT1A (Homo sapiens, UniProt P08908); experiment: Radio-ligand binding assay screen; conditions: cloned receptor; considered inactive
5-HT1A, sequence (P08908 whole entry): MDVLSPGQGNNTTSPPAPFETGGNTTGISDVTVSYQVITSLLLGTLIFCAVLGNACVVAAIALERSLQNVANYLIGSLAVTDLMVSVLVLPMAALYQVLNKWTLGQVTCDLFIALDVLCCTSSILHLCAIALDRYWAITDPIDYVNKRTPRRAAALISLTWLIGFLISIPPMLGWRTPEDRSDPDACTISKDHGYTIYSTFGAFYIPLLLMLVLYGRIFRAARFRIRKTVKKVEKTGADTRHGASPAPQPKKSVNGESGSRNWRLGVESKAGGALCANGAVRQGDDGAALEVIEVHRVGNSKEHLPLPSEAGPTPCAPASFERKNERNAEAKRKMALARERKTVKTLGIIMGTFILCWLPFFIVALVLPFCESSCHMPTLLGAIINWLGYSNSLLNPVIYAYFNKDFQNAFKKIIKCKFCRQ

5-HT1D = 5-HT1D (Homo sapiens, UniProt P28221); experiment: Radio-ligand binding assay screen; conditions: cloned receptor; considered inactive
Muscarinic receptor M3 = Muscarinic receptor M3 (Homo sapiens, UniProt P20309); experiment: Radio-ligand binding assay screen; conditions: cloned receptor; considered inactive
Muscarinic receptor M3, sequence (P20309 whole entry): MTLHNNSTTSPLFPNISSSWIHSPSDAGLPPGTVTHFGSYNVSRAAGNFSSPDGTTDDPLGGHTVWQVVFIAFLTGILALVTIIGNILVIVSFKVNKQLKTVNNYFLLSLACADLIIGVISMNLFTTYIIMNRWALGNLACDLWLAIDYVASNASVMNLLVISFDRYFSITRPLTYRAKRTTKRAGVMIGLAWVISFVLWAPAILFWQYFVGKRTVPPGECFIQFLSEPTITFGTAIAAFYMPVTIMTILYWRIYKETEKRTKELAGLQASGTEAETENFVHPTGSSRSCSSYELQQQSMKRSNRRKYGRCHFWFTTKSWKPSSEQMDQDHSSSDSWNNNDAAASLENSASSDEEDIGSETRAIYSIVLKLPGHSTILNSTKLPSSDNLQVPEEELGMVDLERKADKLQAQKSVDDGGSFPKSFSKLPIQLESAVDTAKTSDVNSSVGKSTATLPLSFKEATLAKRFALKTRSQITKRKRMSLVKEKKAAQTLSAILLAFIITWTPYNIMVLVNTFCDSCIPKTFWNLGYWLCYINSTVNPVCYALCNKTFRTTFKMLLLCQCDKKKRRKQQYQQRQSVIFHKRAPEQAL

DAT = DAT (Homo sapiens, UniProt Q01959); experiment: Radio-ligand binding assay screen; conditions: cloned transporter; considered inactive
β1 adrenoreceptor = β1 adrenoreceptor (Homo sapiens, UniProt P08588); experiment: Radio-ligand binding assay screen; conditions: cloned receptor; considered inactive
5-HT5A = 5-HT5A (Homo sapiens, UniProt P47898); experiment: Radio-ligand binding assay screen; conditions: cloned receptor; considered inactive
Dopamine receptor D1 = Dopamine receptor D1 (Homo sapiens, UniProt P21728); experiment: Radio-ligand binding assay screen; conditions: cloned receptor; considered inactive
5-HT1B = 5-HT1B (Homo sapiens, UniProt P28222); experiment: Radio-ligand binding assay screen; conditions: cloned receptor; considered inactive
5-HT2A = 5-HT2A (Homo sapiens, UniProt P28223); experiment: Radio-ligand binding assay screen; conditions: cloned receptor; considered inactive
MOR = MOR (Homo sapiens, UniProt P35372); experiment: Radio-ligand binding assay screen; conditions: cloned receptor; considered inactive
Dopamine receptor D5 = Dopamine receptor D5 (Homo sapiens, UniProt P21918); experiment: Radio-ligand binding assay screen; conditions: cloned receptor; considered inactive
Dopamine receptor D5, sequence (P21918 whole entry): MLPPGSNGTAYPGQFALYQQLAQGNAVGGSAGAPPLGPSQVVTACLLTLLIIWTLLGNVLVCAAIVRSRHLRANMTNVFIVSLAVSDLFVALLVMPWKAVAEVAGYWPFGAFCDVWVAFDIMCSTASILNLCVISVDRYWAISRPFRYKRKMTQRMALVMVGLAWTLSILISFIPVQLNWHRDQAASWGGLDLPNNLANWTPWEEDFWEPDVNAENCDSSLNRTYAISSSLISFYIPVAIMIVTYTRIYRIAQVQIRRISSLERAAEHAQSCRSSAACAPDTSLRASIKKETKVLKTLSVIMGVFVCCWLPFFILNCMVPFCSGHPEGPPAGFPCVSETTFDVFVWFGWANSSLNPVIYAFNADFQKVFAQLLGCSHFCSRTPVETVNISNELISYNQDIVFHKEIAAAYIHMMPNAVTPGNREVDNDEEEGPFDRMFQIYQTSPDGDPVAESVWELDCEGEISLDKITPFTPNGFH

Dopamine receptor D4 = Dopamine receptor D4 (Homo sapiens, UniProt P21917); experiment: Radio-ligand binding assay screen; conditions: cloned receptor; considered inactive
5-HT6 = 5-HT6 (Homo sapiens, UniProt P50406); experiment: Radio-ligand binding assay screen; conditions: cloned receptor; considered inactive
5-HT2B = 5-HT2B (Homo sapiens, UniProt P41595); experiment: Radio-ligand binding assay screen; conditions: cloned receptor; considered inactive
KOR = KOR (Homo sapiens, UniProt P41145); experiment: Radio-ligand binding assay screen; conditions: cloned receptor; considered inactive
5-HT1E = 5-HT1E (Homo sapiens, UniProt P28566); experiment: Radio-ligand binding assay screen; conditions: cloned receptor; considered inactive
Dopamine receptor D2 = Dopamine receptor D2 (Homo sapiens, UniProt P14416); experiment: Radio-ligand binding assay screen; conditions: cloned receptor; considered inactive
Dopamine receptor D3 = Dopamine receptor D3 (Homo sapiens, UniProt P35462); experiment: Radio-ligand binding assay screen; conditions: cloned receptor; considered inactive
5-HT3 = 5-HT3 (Homo sapiens, UniProt P46098); experiment: Radio-ligand binding assay screen; conditions: cloned receptor; considered inactive
Muscarinic receptor M1 = Muscarinic receptor M1 (Homo sapiens, UniProt P11229); experiment: Radio-ligand binding assay screen; conditions: cloned receptor; considered inactive
Muscarinic receptor M1, sequence (P11229 whole entry): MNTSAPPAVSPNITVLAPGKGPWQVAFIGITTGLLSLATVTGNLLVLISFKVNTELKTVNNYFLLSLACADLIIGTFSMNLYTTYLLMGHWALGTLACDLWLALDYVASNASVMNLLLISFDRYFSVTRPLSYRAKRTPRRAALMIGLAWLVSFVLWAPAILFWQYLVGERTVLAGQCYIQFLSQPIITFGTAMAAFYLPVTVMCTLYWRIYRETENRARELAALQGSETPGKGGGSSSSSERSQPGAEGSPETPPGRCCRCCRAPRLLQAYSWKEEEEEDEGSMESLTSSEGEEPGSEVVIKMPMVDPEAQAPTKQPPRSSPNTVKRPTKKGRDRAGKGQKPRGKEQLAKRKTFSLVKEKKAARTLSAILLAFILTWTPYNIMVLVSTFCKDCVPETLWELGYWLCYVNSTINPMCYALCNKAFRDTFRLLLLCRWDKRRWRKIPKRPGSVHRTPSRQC

DOR = DOR (Homo sapiens, UniProt P41143); experiment: Radio-ligand binding assay screen; conditions: cloned receptor; considered inactive
NET = NET (Homo sapiens, UniProt P23975); experiment: Radio-ligand binding assay screen; conditions: cloned transporter; considered inactive
β3 adrenoreceptor = β3 adrenoreceptor (Homo sapiens, UniProt P13945); experiment: Radio-ligand binding assay screen; conditions: cloned receptor; considered inactive
Histamine receptor H3 = Histamine receptor H3 (Homo sapiens, UniProt Q9Y5N1); experiment: Radio-ligand binding assay screen; conditions: cloned receptor; considered inactive
β2 adrenoreceptor = β2 adrenoreceptor (Homo sapiens, UniProt P07550); experiment: Radio-ligand binding assay screen; conditions: cloned receptor; considered inactive
Histamine receptor H4 = Histamine receptor H4 (Homo sapiens, UniProt Q9H3N8); experiment: Radio-ligand binding assay screen; conditions: cloned receptor; considered inactive
α1B adrenoreceptor = α1B adrenoreceptor (Homo sapiens, UniProt P35368); experiment: Radio-ligand binding assay screen; conditions: cloned receptor; considered inactive
human GABAB receptor [1] = target: T1, human GABAB receptor (Homo sapiens, UniProt Q9UBS5); conditions: concentrations up to 100 μM, racemic mixtures
T1 sequence (Q9UBS5 15-961 limits assumed): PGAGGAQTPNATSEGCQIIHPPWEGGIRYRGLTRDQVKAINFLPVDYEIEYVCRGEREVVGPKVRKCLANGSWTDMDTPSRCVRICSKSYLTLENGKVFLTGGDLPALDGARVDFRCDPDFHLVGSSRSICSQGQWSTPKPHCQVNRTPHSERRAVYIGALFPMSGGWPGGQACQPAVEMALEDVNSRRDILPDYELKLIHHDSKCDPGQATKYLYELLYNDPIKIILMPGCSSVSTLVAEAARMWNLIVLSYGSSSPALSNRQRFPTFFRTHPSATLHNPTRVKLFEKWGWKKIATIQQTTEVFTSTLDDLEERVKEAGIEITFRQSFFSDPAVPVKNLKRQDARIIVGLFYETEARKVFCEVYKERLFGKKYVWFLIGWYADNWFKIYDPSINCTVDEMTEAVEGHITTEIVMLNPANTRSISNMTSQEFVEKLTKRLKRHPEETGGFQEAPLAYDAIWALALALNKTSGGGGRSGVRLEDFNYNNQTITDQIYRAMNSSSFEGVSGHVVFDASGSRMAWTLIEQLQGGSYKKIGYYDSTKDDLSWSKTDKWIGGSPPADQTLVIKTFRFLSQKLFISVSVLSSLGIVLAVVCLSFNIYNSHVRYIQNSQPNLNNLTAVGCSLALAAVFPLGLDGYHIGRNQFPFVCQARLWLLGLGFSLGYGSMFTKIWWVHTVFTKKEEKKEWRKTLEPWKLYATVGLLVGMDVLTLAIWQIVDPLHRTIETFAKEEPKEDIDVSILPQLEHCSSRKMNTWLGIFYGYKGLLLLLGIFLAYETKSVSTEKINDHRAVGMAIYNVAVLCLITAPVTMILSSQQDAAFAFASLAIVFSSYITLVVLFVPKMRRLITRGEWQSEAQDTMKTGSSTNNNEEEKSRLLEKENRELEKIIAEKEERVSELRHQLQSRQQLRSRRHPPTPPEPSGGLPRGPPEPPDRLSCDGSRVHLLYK
T1 sequence (O75899 42-941 partner): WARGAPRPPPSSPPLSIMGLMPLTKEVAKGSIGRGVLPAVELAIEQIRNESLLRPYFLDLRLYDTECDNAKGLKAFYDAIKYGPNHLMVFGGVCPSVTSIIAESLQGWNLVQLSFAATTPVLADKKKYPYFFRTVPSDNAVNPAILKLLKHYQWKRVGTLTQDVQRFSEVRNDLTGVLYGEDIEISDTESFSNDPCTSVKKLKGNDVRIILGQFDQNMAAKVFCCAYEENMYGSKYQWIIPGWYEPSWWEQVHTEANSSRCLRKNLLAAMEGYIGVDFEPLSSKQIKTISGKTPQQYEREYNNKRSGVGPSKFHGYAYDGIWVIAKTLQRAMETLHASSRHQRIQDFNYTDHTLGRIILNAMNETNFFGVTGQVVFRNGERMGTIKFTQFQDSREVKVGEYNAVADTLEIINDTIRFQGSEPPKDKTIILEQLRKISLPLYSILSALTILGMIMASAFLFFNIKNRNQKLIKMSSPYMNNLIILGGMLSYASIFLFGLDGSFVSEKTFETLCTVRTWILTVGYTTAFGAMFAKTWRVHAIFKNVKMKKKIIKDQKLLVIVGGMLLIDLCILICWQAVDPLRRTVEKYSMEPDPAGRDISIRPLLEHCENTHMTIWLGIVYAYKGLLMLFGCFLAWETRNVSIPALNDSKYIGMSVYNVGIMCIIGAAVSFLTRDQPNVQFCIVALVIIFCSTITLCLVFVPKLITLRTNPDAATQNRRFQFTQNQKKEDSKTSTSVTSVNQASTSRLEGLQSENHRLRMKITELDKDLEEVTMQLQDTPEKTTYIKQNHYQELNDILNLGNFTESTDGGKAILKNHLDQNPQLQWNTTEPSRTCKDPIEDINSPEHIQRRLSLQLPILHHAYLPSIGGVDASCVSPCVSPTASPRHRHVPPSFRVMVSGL

human GABAB receptor [2] = target: T1, human GABAB receptor; conditions: read-out: GABAB EC50; agonist activity, HEK293/Cre-luc, ± standard error; ref [19]; cited from earlier work

Muscarinic receptor M4, sequence (P08173 whole entry): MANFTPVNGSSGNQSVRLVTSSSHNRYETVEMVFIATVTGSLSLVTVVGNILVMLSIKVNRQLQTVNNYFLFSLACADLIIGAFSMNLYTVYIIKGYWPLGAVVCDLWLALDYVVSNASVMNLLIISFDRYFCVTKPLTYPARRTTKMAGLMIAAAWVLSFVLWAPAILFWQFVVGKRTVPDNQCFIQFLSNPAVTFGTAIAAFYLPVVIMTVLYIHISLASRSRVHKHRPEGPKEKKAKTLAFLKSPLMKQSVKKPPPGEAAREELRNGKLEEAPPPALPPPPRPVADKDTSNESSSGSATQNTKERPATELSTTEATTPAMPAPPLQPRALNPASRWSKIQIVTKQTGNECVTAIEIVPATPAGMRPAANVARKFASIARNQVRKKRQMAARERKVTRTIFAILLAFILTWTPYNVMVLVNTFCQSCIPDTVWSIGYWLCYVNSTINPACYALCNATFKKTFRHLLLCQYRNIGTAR

SMILES: CC(=O)c1ccc(C(O)C(F)(F)C(=O)C23CC4CC(CC(C4)C2)C3)cc1 (stereo not drawn) [Compound 3]
inhibition, H2 (Histamine receptor H2): less than 30%
inhibition, M4 (Muscarinic receptor M4): less than 30%
inhibition, rSigma1 (rSigma1): less than 30%
inhibition, α2A (α2A adrenoreceptor): less than 30%
inhibition, rSigma2 (rSigma2): less than 30%
inhibition, H1 (Histamine receptor H1): less than 30%
inhibition, 5-HT2C (5-HT2C): less than 30%
inhibition, 5-HT7 (5-HT7): less than 30%
inhibition, α1A (α1A adrenoreceptor): less than 30%
inhibition, SERT (SERT): less than 30%
inhibition, M2 (Muscarinic receptor M2): less than 30%
inhibition, α1Δ (α1Δ adrenoreceptor): less than 30%
inhibition, MS (Muscarinic receptor MS): less than 30%
inhibition, 5-HT1A (5-HT1A): less than 30%
inhibition, 5-HT1D (5-HT1D): less than 30%
inhibition, M3 (Muscarinic receptor M3): less than 30%
inhibition, DAT (DAT): less than 30%
inhibition, β1 (β1 adrenoreceptor): less than 30%
inhibition, 5-HT5A (5-HT5A): less than 30%
inhibition, D1 (Dopamine receptor D1): less than 30%
inhibition, 5-HT1B (5-HT1B): less than 30%
inhibition, 5-HT2A (5-HT2A): less than 30%
inhibition, MOR (MOR): less than 30%
inhibition, D5 (Dopamine receptor D5): less than 30%
inhibition, D4 (Dopamine receptor D4): less than 30%
inhibition, 5-HT6 (5-HT6): less than 30%
inhibition, 5-HT2B (5-HT2B): less than 30%
inhibition, KOR (KOR): less than 30%
inhibition, 5-HT1E (5-HT1E): less than 30%
inhibition, D2 (Dopamine receptor D2): less than 30%
inhibition, D3 (Dopamine receptor D3): less than 30%
inhibition, 5-HT3 (5-HT3): less than 30%
inhibition, M1 (Muscarinic receptor M1): less than 30%
inhibition, DOR (DOR): less than 30%
inhibition, NET (NET): less than 30%
inhibition, β3 (β3 adrenoreceptor): less than 30%
inhibition, H3 (Histamine receptor H3): less than 30%
inhibition, β2 (β2 adrenoreceptor): less than 30%
inhibition, H4 (Histamine receptor H4): less than 30%
inhibition, α1B (α1B adrenoreceptor): less than 30%

Agonist activity at the GABAB receptor (in words) (human GABAB receptor [1]): inactive
SMILES: CCc1ccc(C(O)C(F)(F)C(=O)C23CC4CC(CC(C4)C2)C3)cc1 (stereo not drawn) [Compound 4]

SMILES: O=C(C12CC3CC(CC(C3)C1)C2)C(F)(F)C(O)/C=C/c1ccccc1 (stereo not drawn) [Compound 9]
EC50 (human GABAB receptor [2]): 40 ± 3.59 µM

SMILES: CC(C)(C)OC(=O)NC(c1ccccc1)C(F)(F)C(=O)c1ccc2ccccc2c1 (stereo not drawn) [Compound 11]
inhibition, H2 (Histamine receptor H2): less than 30%
inhibition, M4 (Muscarinic receptor M4): less than 30%
inhibition, rSigma1 (rSigma1): less than 30%
inhibition, α2A (α2A adrenoreceptor): less than 30%
inhibition, rSigma2 (rSigma2): less than 30%
inhibition, H1 (Histamine receptor H1): less than 30%
inhibition, 5-HT2C (5-HT2C): less than 30%
inhibition, 5-HT7 (5-HT7): less than 30%
inhibition, α1A (α1A adrenoreceptor): less than 30%
inhibition, SERT (SERT): less than 30%
inhibition, M2 (Muscarinic receptor M2): less than 30%
inhibition, α1Δ (α1Δ adrenoreceptor): less than 30%
inhibition, MS (Muscarinic receptor MS): less than 30%
inhibition, 5-HT1A (5-HT1A): less than 30%
inhibition, 5-HT1D (5-HT1D): less than 30%
inhibition, M3 (Muscarinic receptor M3): less than 30%
inhibition, DAT (DAT): less than 30%
inhibition, β1 (β1 adrenoreceptor): less than 30%
inhibition, 5-HT5A (5-HT5A): less than 30%
inhibition, D1 (Dopamine receptor D1): less than 30%
inhibition, 5-HT1B (5-HT1B): less than 30%
inhibition, 5-HT2A (5-HT2A): less than 30%
inhibition, MOR (MOR): less than 30%
inhibition, D5 (Dopamine receptor D5): less than 30%
inhibition, D4 (Dopamine receptor D4): less than 30%
inhibition, 5-HT6 (5-HT6): less than 30%
inhibition, 5-HT2B (5-HT2B): less than 30%
inhibition, KOR (KOR): less than 30%
inhibition, 5-HT1E (5-HT1E): less than 30%
inhibition, D2 (Dopamine receptor D2): less than 30%
inhibition, D3 (Dopamine receptor D3): less than 30%
inhibition, 5-HT3 (5-HT3): less than 30%
inhibition, M1 (Muscarinic receptor M1): less than 30%
inhibition, DOR (DOR): less than 30%
inhibition, NET (NET): less than 30%
inhibition, β3 (β3 adrenoreceptor): less than 30%
inhibition, H3 (Histamine receptor H3): less than 30%
inhibition, β2 (β2 adrenoreceptor): less than 30%
inhibition, H4 (Histamine receptor H4): less than 30%
inhibition, α1B (α1B adrenoreceptor): less than 30%

Agonist activity at the GABAB receptor (in words) (human GABAB receptor [1]): inactive
SMILES: C/C=C/C=C/C(NCc1ccccc1)C(F)(F)C(=O)c1ccc2ccccc2c1 (stereo not drawn) [Compound 16]

Agonist activity at the GABAB receptor (in words) (human GABAB receptor [1]): moderate activity
SMILES: O=C(c1ccc(Cl)cc1)C(F)(F)C(NCc1ccccc1)c1ccccc1 (stereo not drawn) [Compound 17]

Source: article PMC6152937 (Bioorganic & medicinal chemistry letters, 2018)
